The results in this text go back to patent US9060961B2, “Molecules and methods for treatment and detection of cancer” (UNIVERSITY OF WASHINGTON, priority 2006, dated 2015).

The subject of the assay is T lymphocytes in peripheral blood mononuclear cells. The experiment in a line: IFN-gamma ELISPOT of human T cells with IGF1R peptides. Format: cell-based. As to conditions: for Immunogenicity Cancer: responders / cancer patients tested; for Immunogenicity Volunteer: responders / volunteer donors tested. The method, then: A scoring system based on internet available epitope prediction algorithms was developed to predict the peptides derived from IGF1R that have optimal binding affinity and promiscuity against multiple MHC class II molecules. […] After stimulating human T cells with the peptides, IFN-gamma secretion was determined via ELISPOT analysis. Five of the most immunogenic peptides were selected for in vivo evaluation in neu-transgenic mice to assess the potential of clinical efficacy.

As to DERQPYAHMNGGRKN [p 1341-1355], the “Immunogenicity Cancer” value is recorded as 1/10. In the case of IRGWKLFYNYALVIF [p 106-120], the “Immunogenicity Cancer” value was 3/10 and the “Immunogenicity Volunteer” value is recorded as 2/5. The matching figures for LIIALPVAVLLIVGG [p 936-950]: 4/10 and 1/5. VIEGYLHILLISKAE [p 54-68]: the “Immunogenicity Cancer” value is recorded as 2/10. On the same count and under the same terms, with SKMIQMAGEIADGMA [p 1110-1124] the figure was 1/10; with ASNFVFARTMPAEGA [p 817-831], 1/10. Turning to TQYAVYVKAVTLTMV [p 575-589], the “Immunogenicity Cancer” value is on record as 1/10 and the “Immunogenicity Volunteer” value is given as 1/5. Take DYRSYRFPKLTVITE [p 69-83]: the “Immunogenicity Volunteer” value is 1/5. Consider GMAYLNANKFVHRDL [p 1122-1136], for which the “Immunogenicity Cancer” value is 1/10. Regarding WSFGVVLWEIATLAE [p 1196-1210], the “Immunogenicity Cancer” value is given as 2/10 and the “Immunogenicity Volunteer” value is given as 1/5. With GVLVLRASFDERQPY [p 1332-1346], the “Immunogenicity Cancer” value is given as 2/10.

Consider SHALVSLSFLKNLRL [p 393-407], for which the “Immunogenicity Cancer” value is listed as 2/10 and the “Immunogenicity Volunteer” value is reported as 2/5. In the case of LVIMLYVFHRKRNNS [p 951-965], the “Immunogenicity Cancer” value is 3/10. For the sequence IDIRNDYQQLKRLEN [p 37-5], the “Immunogenicity Cancer” value was 1/10. Same read-out and setting: the same measure for YSFYVLDNQNLQQLW [p 418-432]: 1/10.
